In publication PMC4245550, “Exploring the Chemodiversity and Biological Activities of the Secondary Metabolites from the Marine Fungus Neosartorya pseudofischeri” (Marine Drugs, 2014):
In brackets after ≈: the same amount, converted by molar mass. Like-named read-outs stand apart in the source and are kept apart here.

Assays:
[1] = tested on: Methicillin-resistant staphylococcus aureus (R3708); test: Antibacterial activity, broth dilution method (Mueller–Hinton broth), MIC
[2] = tested on: human colon cancer cell line HCT-116; test: Cytotoxicity, MTS assay
[3] = tested on: Staphylococcus aureus (ATCC29213); test: Antibacterial activity, broth dilution method (Mueller–Hinton broth), MIC
[4] = tested on: Staphylococcus aureus (ATCC29213), Methicillin-resistant staphylococcus aureus (R3708) and Escherichia coli (ATCC25922); test: Antibacterial activity against three multidrug-resistant bacteria, broth dilution (summary statements)
[5] = tested on: human embryonic kidney (HEK) 293 cell line; test: Cytotoxicity, MTS assay
[6] = tested on: Escherichia coli (ATCC25922); test: Antibacterial activity, broth dilution method (Mueller–Hinton broth), MIC
[7] = ATCC25922|ATCC29213, read-out: MIC values ranging over the three bacteria

Compound | MIC [1] [µM] | IC50 ([2]; Homo sapiens, HCT-116, 72 h) [µM] | MIC [3] [µM] | IC50 ([5]; Homo sapiens, HEK293, 72 h) [µM] | MIC [6] [µM] | MIC [4] [mg/L] | other results
CN1C(=O)[C@]23CC4=CC=C[C@H](O)[C@H]4N2C(=O)[C@@]1(CO)SS3 [Compound 7, gliotoxin] | 1.53 (≈ 0.499 µg/mL) | 1.24 ± 0.38 | 12.2 (≈ 3.98 µg/mL) | 1.58 ± 0.03 | 24.5 (≈ 8.01 µg/mL) | – | MIC [4, 7]: 1.52 to 97.6 µM
CSC1(CO)C(=O)N2C3C(=CC=CC3OC(C)=O)CC2(SC)C(=O)N1C (stereo not drawn) [Compound 10, 6-acetylbis(methylthio)gliotoxin] | – | > 50 | – | > 50 | – | > 256 | –
CC1(C)S[C@@H]2[C@H](NC(=O)[C@H](N)c3ccccc3)C(=O)N2[C@H]1C(=O)O [Ampicillin sodium, reference compound] | 129 | – | 8.07 | – | 6.73 | – | –
CC(=O)OC1C=CC=C2CC34SSC(CO)(C(=O)N3C21)N(C)C4=O (stereo not drawn) [Compound 8, acetylgliotoxin] | 21.7 (≈ 8.01 µg/mL) | 0.89 ± 0.04 | 86.9 (≈ 32 µg/mL) | 4.49 ± 0.24 | > 696 | – | –
CSC1(CO)C(=O)N2c3ccccc3CC2(SC)C(=O)N1C (stereo not drawn) [Compound 12, didehydrobisdethiobis(methylthio)gliotoxin] | – | > 50 | – | > 50 | – | > 256 | –
CN1C(=O)C2(S)CC3=CC=CC(O)C3N2C(=O)C1(S)CO (stereo not drawn) [Compound 9, reduced gliotoxin] | 1.52 (≈ 0.499 µg/mL) | 0.43 ± 0.04 | 48.8 (≈ 16 µg/mL) | 1.26 ± 0.04 | 97.6 (≈ 32 µg/mL) | – | MIC [4, 7]: 1.52 to 97.6 µM
CSC1(CO)NC(=O)C(Cc2ccccc2)(SC)NC1=O (stereo not drawn) [Compound 13, bis-N-norgliovictin] | – | > 50 | – | > 50 | – | > 256 | –
CC1C(=O)n2c(cc3ccccc32)C(=O)N1C (stereo not drawn) [Compound 3, 1,2,3,4-tetrahydro-2,3-dimethyl-1,4-dioxopyrazino[1,2-a]indole] | – | – | – | – | – | > 256 | –
CNC(=O)c1cc2ccccc2[nH]1 [Compound 6, N-methyl-1H-indole-2-carboxamide] | – | – | – | – | – | > 256 | –
COC1(CO)C(=O)n2c(cc3ccccc32)C(=O)N1C (stereo not drawn) [Compound 2, 1,2,3,4-tetrahydro-3-methoxyl-3-hydroxylmethyl-2-methyl-1,4-dioxopyrazino[1,2-a]indole] | – | – | – | – | – | > 256 | –
CN1C(=O)C(=O)n2c(cc3ccccc32)C1=O [Compound 5, 1,2,3,4-tetrahydro-2-methyl-1,3,4-trioxopyrazino[1,2-a]indole] | – | > 50 | – | > 50 | – | > 256 | –
O=c1[nH]cc(F)c(=O)[nH]1 [5-Fluorouracil, reference compound] | – | 2.04 ± 0.22 | – | – | – | – | –
bisdethiobis(methylthio)gliotoxin [Compound 11] | – | – | – | – | – | – | IC50 ([2]; HCT-116 cells, 72 h, MTS, n = 5): 8.59 ± 0.96 µM; IC50 ([5]; 293 cells, 72 h, MTS, n = 5): 16.4 ± 0.38 µM
C=c1c(=O)n2c(cc3ccccc32)c(=O)n1C [Compound 4, 1,2,3,4-tetrahydro-2-methyl-3-methylene-1,4-dioxopyrazino[1,2-a]indole] | 70.7 (≈ 16 µg/mL) | 10.3 ± 1.41 | 283 (≈ 64 µg/mL) | 30.1 ± 0.9 | > 1130 | – | –
CN[C@H](CC(C)C)C(=O)N[C@H]1C(=O)N[C@@H](CC(N)=O)C(=O)N[C@H]2C(=O)N[C@H]3C(=O)N[C@H](C(=O)N[C@H](C(=O)O)c4cc(O)cc(O)c4-c4cc3ccc4O)[C@H](O)c3ccc(c(Cl)c3)Oc3cc2cc(c3O[C@@H]2O[C@H](CO)[C@@H](O)[C@H](O)[C@H]2O[C@H]2C[C@](C)(N)[C@H](O)[C@H](C)O2)Oc2ccc(cc2Cl)[C@H]1O [Vancomycin, reference compound] | 2.01 (≈ 2.91 µg/mL) | – | 0.84 (≈ 1.22 µg/mL) | – | – | – | –
